The source of these data is patent US11649238B2, “Substituted pyrazolo[1,5-a]pyrimidines as PI4K inhibitors” (GLAXOSMITHKLINE INTELLECTUAL PROPERTY DEVELOPMENT LIMITED, priority 2018, dated 2023).

Experiment [1] has as its system human rhinovirus Type A Strain 16 (HRVA16) in HeLa Ohio cells. As to the kind of experiment: Cytopathic Effect (CPE) Assay, ATP-depletion in infected HeLa Ohio cells. In kind it is cell-based. The following applies: Human rhinovirus sp., HRVA16, HeLa, 48 h, HRVA16 at MOI of 1, 33° C. for 2 days, CellTiter-Glo, read-out: mean pIC50 (converted). As to the method: c) Cytopathic Effect (CPE) Assay Protocol
The in vitro inhibition of PI4 KB activity was determined by analysis of the inhibition of ATP-depletion in HeLa Ohio cells in response to infection with human rhinovirus Type A Strain 16 (HRVA16). ATP levels were determined using CellTiter-GLO reagent from Promega. Compounds that inhibit PI4 KB are also potent inhibitors of human rhinoviruses and are able to protect HeLa Ohio cells from CPE induced by viral infection and replication. Protected cells remain viable following viral infection and therefore have greater ATP levels.
Compounds were dissolved in 100% DMSO to a concentration of 3 mM and subsequent dilutions were prepared in 100% DMSO using a 1:3 serial step dilution. A 0.5 μL stamp from an 10-point titration was transferred to a white 96 well Greiner tissue culture flat bottom plate (655083). A 0.5 μL stamp of 100% DMSO was stamped into columns 11 and 12 of the plate, ensuring a final assay DMSO concentration of 0.33% across the plate and a compound top final assay concentration of 10 μM.
HeLa Ohio cells were cultured at 37° C., 5% CO2 in media (DMEM supplemented with 10% Australian origin foetal bovine serum and 2 mM glutamax). Cells were passaged when confluency reached >80%. For the assay, cells were grown to 80-90% confluency before detachment.
Cells were detached for the assay by washing with PBS and detached using 3 mL TrypLE Express for […] at 37° C. Detached cells were mixed with 7 mL of media and centrifuged at 300 g for 5 min. The cell pellet was resuspended in 50 mL media and counted on a Beckman Coulter ViCell. Cells were diluted to 6.6×10^4 cells/mL and some of the cell volume was removed into a new tube to be used as a column 12 control. HRVA16 stock was added to the remaining cell suspension at the appropriate dilution for the virus stock to achieve an MOI of 1.
150 μL of the cell+virus suspension was added per well to columns 1-11 using a Multidrop Combi. 150 μL of the separate cell suspension was added per well to columns 12 using a multichannel pipette. Assay plates were sealed and incubated at 33° C., 5% CO2 for 2 days. After 2 days, assay plates were removed from the incubator and allowed to equilibrate to room temperature. 60 μL of CellTiter-Glo reagent was added to all wells using a Thermo Scientific Multidrop Combi. Plates were incubated at room temperature for 20 min before reading on an a Perkin Elmer Envision (Settings: Gripper height 2.5, Fixed measurement height (mm) 6.5, Distance between plate and detector 0, Measurement time (s) 0.1, Glow (ct2) correction factor (0%)).
The inhibitory effect of the compounds on the PI4 KB activity was evaluated by the IC50 of the response relative to the high (no virus, column 12) and low (virus+no inhibitor, column 11) controls by fitting to a four parameter dose response equation.
A general note: Protection from cytopathic effect is a common read-out in antiviral testing.

The target of experiment [2] is T1, human PI4KIII-beta 13-828 (D316-330) (Homo sapiens, UniProt Q9UBF8).
T1 construct: human PI4KIII-beta 13-828 (D316-330)
T1 sequence (Q9UBF8 1-801 isoform Q9UBF8-2): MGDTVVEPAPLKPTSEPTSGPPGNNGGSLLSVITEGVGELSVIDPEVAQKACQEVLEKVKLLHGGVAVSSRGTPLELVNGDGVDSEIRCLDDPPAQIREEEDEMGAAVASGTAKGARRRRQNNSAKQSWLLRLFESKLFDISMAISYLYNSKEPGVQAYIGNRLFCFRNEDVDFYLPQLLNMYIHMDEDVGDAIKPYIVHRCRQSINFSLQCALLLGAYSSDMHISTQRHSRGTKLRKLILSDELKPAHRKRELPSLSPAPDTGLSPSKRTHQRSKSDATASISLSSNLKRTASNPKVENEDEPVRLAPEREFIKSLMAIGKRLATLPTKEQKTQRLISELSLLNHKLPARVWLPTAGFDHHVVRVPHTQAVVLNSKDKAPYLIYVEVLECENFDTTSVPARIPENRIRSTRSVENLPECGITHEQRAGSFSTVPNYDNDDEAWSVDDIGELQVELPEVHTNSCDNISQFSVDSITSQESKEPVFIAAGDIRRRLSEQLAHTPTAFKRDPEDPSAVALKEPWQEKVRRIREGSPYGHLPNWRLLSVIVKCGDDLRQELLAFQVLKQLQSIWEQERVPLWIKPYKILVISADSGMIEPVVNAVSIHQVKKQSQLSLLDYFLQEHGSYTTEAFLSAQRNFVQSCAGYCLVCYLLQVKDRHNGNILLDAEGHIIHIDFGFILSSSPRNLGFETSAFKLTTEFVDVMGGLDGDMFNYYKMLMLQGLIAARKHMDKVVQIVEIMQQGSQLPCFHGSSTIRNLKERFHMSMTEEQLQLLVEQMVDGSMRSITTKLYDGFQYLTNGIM
As to the kind of experiment: PI4 KB Activity Assay (ADP-GLO Kinase assay). In kind it is biochemical. Conditions: 1 mM ATP, 60 μM phosphatidylinositol, 3 hours at room temperature; read-out: mean pIC50 (converted). The procedure: The in vitro inhibition of human PI4KIII-beta 13-828 (D316-330) activity was determined by using the ADP-GLO Kinase assay kit from Promega. Inhibitors were dissolved in 100% DMSO at a concentration of 1 mM. Dilutions were prepared in 100% DMSO using a 1 in 3 serial step dilution. A 60 nL stamp from an 11-point titration was transferred to a white low volume 384 well Greiner assay plate ensuring a final DMSO concentration of 1% across the plate and a top final concentration of inhibitor of 10 μM. The PI4KIII-beta assay contained 25 mM Hepes pH 7.5 (NaOH), 10 mM MgCl2, 0.5 mM EGTA, 0.1% Triton X-100, 2 mM TCEP, and 0.1 mg/ml BSA, 1 mM ATP, 60 μM phosphatidylinositol, and 1.5 nM human PI4K-beta 13-828 (D316-330) in a total volume of 6 μL. The assay was initiated with the addition of enzyme, covered, and incubated at room temperature for 3 hours. The assays were stopped with the addition of 6 μl ADP-GLO Reagent containing 0.1% CHAPS to deplete the unconsumed ATP. The plates were incubated at room temperature for 60 min and then 12 μl of the Kinase Detection Reagent containing 0.1% CHAPS was added to convert ADP to ATP and introduce luciferase and luciferin. After 40 min incubation at room temperature the luminescent signal was read on a BMG Labtech PHERAstar FS with the following settings; Gain 3600, Focal height 13.7 mm, measurement interval time 1 s, Settling time 0.2 s. The inhibitory effect of the PI4K-beta activity of the compounds was evaluated by the IC50 of the response relative to the high, no compound, and low, no enzyme, controls by fitting to the four parameter dose response question.
A general note: ADP-Glo first removes unused ATP, then detects ADP through luciferase.

For `Cc1ccc(-c2c(C)nn3c(NCc4cccc(-c5nccn5C)c4)cc(C(C)O)nc23)cc1C(=O)N(C)CCCO` (stereo not shown) [Compound 13], in experiment [1], the IC50 was at most 25.1 nM.

For `COc1ccc(-c2c(C)nn3c(NCc4cccc(-c5nccn5C)c4)cc(C(C)(C)O)nc23)cc1C(=O)N(C)CCO` [Compound 26], the IC50 in experiment [1] was at most 25.1 nM; in experiment [2], at most 3.98 nM.

As for `COc1ccc(-c2c(C)nn3c(NCc4cccc(-c5nccn5C)c4)cc(C(C)O)nc23)cc1S(=O)(=O)CCO` (single isomer, unassigned) [Compound 71, 2-((5-(5-(1-Hydroxyethyl)-2-methyl-7-((3-(1-methyl-1H-imidazol-2-yl)benzyl)amino)pyrazolo[1,5-a]pyrimidin-3-yl)-2-methoxyphenyl)sulfonyl)ethan-1-ol], the results for the IC50 in experiment [1] and in experiment [2] were at most 25.1 nM and at most 3.98 nM, respectively.

Regarding `Cc1nn2c(NCc3cccc(-c4nccn4C)c3)cc(C(C)(C)O)nc2c1-c1cccc(C(=O)N(C)CCCO)c1` [Compound 87, 3-(5-(2-Hydroxypropan-2-yl)-2-methyl-7-((3-(1-methyl-1H-imidazol-2-yl)benzyl)amino)pyrazolo[1,5-a]pyrimidin-3-yl)-N-(3-hydroxypropyl)-N-methylbenzamide], the IC50 is at most 25.1 nM in experiment [1] and at most 3.98 nM in experiment [2].

For the molecule `CCC(O)c1cc(NCc2cccc(-c3nccn3C)c2)n2nc(C)c(-c3ccc(OC)c(C(=O)N(C)C4CCOCC4)c3)c2n1` (single isomer, unassigned) [Compound 77, 5-(5-(1-Hydroxypropyl)-2-methyl-7-((3-(1-methyl-1H-imidazol-2-yl)benzyl)amino)pyrazolo[1,5-a]pyrimidin-3-yl)-2-methoxy-N-methyl-N-(tetrahydro-2H-pyran-4-yl)benzamide], the values for the IC50 in experiment [1] and in experiment [2] were at most 25.1 nM and at most 3.98 nM, respectively.

As to `Cc1ccc(-c2c(C)nn3c(NCc4cccc(-c5nccn5C)c4)cc(C4(O)CC4)nc23)cc1C(=O)N(C)CCCO` [Compound 79, 5-(5-(1-Hydroxycyclopropyl)-2-methyl-7-((3-(1-methyl-1H-imidazol-2-yl)benzyl)amino)pyrazolo[1,5-a]pyrimidin-3-yl)-N-(3-hydroxypropyl)-N,2-dimethylbenzamide], the results for the IC50 in experiment [1] and in experiment [2] were at most 25.1 nM and at most 3.98 nM, respectively.

For `Cc1ccc(-c2c(C)nn3c(NCc4cccc(-c5nccn5C)c4)cc(C(C)CO)nc23)cc1C(=O)N(C)CCCO` (stereo not shown) [Compound 54, 5-(5-(1-Hydroxypropan-2-yl)-2-methyl-7-((3-(1-methyl-1H-imidazol-2-yl)benzyl)amino)pyrazolo[1,5-a]pyrimidin-3-yl)-N-(3-hydroxypropyl)-N,2-dimethylbenzamide], the IC50 in experiment [1] is at most 25.1 nM; in experiment [2] it was at most 3.98 nM.

As to `COc1ccc(-c2c(C)nn3c(NCc4cccc(-c5nccn5C)c4)cc(C(C)O)nc23)cc1S(=O)(=O)CCO` (stereo not shown) [Compound 2, 2-((5-(5-(1-Hydroxyethyl)-2-methyl-7-((3-(1-methyl-1H-imidazol-2-yl)benzyl)amino)pyrazolo[1,5-a]pyrimidin-3-yl)-2-methoxyphenyl)sulfonyl)ethan-1-ol], the values for the IC50 in experiment [1] and in experiment [2] were at most 25.1 nM and at most 3.98 nM, respectively.

`Cc1ccc(-c2c(C)nn3c(NCc4cccc(-c5nccn5C)c4)cc(C(C)(C)O)nc23)cc1C(=O)NCCCO` [Compound 60]: the IC50 in experiment [1] is at most 25.1 nM; in experiment [2], at most 3.98 nM.

As for `CCN(CCO)C(=O)c1cc(-c2c(C)nn3c(NCc4cccc(-c5nccn5C)c4)cc(C(C)(C)O)nc23)ccc1C` [Compound 38, N-ethyl-N-(2-hydroxyethyl)-5-(5-(2-hydroxypropan-2-yl)-2-methyl-7-((3-(1-methyl-1H-imidazol-2-yl)benzyl)amino)pyrazolo[1,5-a]pyrimidin-3-yl)-2-methylbenzamide], the results for the IC50 in experiment [1] and in experiment [2] were at most 25.1 nM and at most 3.98 nM, respectively.

Turning to `COc1ccc(-c2c(C)nn3c(NCc4cccc(-c5nccn5C)c4)cc(C(C)(C)O)nc23)cc1C(=O)N1CC[C@H](O)C1` [Compound 8, (S)-(5-(5-(2-Hydroxypropan-2-yl)-2-methyl-7-((3-(1-methyl-1H-imidazol-2-yl)benzyl)amino)pyrazolo[1,5-a]pyrimidin-3-yl)-2-methoxyphenyl)(3-hydroxypyrrolidin-1-yl)methanone], the IC50 in experiment [1] was at most 25.1 nM.

With `COc1ccc(-c2c(C)nn3c(NCc4cccc(-c5nccn5C)c4)cc(CC4CCOCC4)nc23)cc1S(=O)(=O)CCO` [Compound 85, 2-((2-Methoxy-5-(2-methyl-7-((3-(1-methyl-1H-imidazol-2-yl)benzyl)amino)-5-((tetrahydro-2H-pyran-4-yl)methyl)pyrazolo[1,5-a]pyrimidin-3-yl)phenyl)sulfonyl)ethan-1-ol], the IC50 in experiment [1] is at most 25.1 nM; in experiment [2], at most 3.98 nM.

With `COc1ccc(-c2c(C)nn3c(NCc4cccc(-c5nccn5C)c4)cc(C(O)C4CC4)nc23)cc1S(=O)(=O)CCO` (stereo not shown) [Compound 4], the IC50 was at most 25.1 nM in experiment [1] and at most 3.98 nM in experiment [2].

On to `COc1ccc(-c2c(C)nn3c(NCc4cccc(-c5nccn5C)c4)cc(C(C)(C)O)nc23)cc1C(=O)N(C)CCCO` [Compound 32, 5-(5-(2-hydroxypropan-2-yl)-2-methyl-7-((3-(1-methyl-1H-imidazol-2-yl)benzyl)amino)pyrazolo[1,5-a]pyrimidin-3-yl)-N-(3-hydroxypropyl)-2-methoxy-N-methylbenzamide], for which the IC50 in experiment [1] is at most 25.1 nM; in experiment [2], at most 3.98 nM.

Turning to `COc1ccc(-c2c(C)nn3c(NCc4cccc(-c5nccn5C)c4)cc(C(C)(C)O)nc23)cc1C(=O)N1CCOC[C@@H]1C` [Compound 30], in experiment [1], the IC50 was at most 25.1 nM.

Take `COc1ccc(-c2c(C)nn3c(NCc4cccc(-c5nccn5C)c4)cc(C(C)(C)O)nc23)cc1C(=O)N1CCC(C)(O)C1` (stereo not shown) [Compound 27]: the IC50 is at most 25.1 nM in experiment [1] and at most 3.98 nM in experiment [2].

Regarding `COc1ccc(-c2c(C)nn3c(NCc4cccc(-c5nccn5C)c4)cc(C(C)(C)O)nc23)cc1C(=O)N1CCCOCC1` [Compound 28], the IC50 in experiment [1] is at most 25.1 nM; in experiment [2], at most 3.98 nM.
